Data from patent US20120282187A1 (BOEHRINGER INGELHEIM INTERNATIONAL GMBH, priority 2008, published 2012).
Read-outs that look alike come from different tables or passages of the source.

Legend:
AF patients [1] = conditions: SPORTIF V, cited from earlier work
[2] = test system: patients who have nonvalvular atrial fibrillation; conditions: VKAs, such as warfarin; cited from earlier work
[3] = test system: patients with atrial fibrillation at risk of stroke; assay: RELY clinical trial (Randomized Evaluation of Long-term Anticoagulation Therapy); assay type: in vivo
From the text: The primary study outcome was stroke or systemic embolism. The primary safety outcome was major hemorrhage. Secondary outcomes were stroke, systemic embolism and death. […] All other bleeding was considered minor.
All analyses were based on intention-to-treat.

AF patients [4] = conditions: ACTIVE W; cited from earlier work
AF patients [5] = conditions: SPORTIF III, cited from earlier work
[6] = ximelagatran 36 mg b.i.d. vs warfarin

SMILES: CC(=O)CC(c1ccccc1)c1c(O)c2ccccc2oc1=O (racemic) [Warfarin, 3-(α-acetonylbenzyl)4-hydroxycoumarin]
- Myocardial Infarction (AF patients [1]; Warfarin vs. Ximelagatran): 1.4% (warfarin)
- Stroke and systemic embolism (per 100 patient years) (AF patients [1]; [6]): 1.2% (warfarin)
- reduction of the risk of stroke compared to control [2]: 64%
- mean time in therapeutic range ([3]; INR 2.0 to 3.0, method of Rosendaal): 64%
- Stroke, systemic embolism, pulmonary embolism, myocardial infarction death or major bleed, Rate ([3]; net benefit, warfarin arm): 7.99 /100 Person Years
- ALT or AST >3xULN ([3]; warfarin arm): 2.1%
- ALT or AST >3xULN with concurrent bilirubin >2xULN ([3]; warfarin arm): 0.4%
- ALT or AST >3xULN with concurrent bilirubin >2xULN, number ([3]; warfarin arm): 22
- ALT or AST >3xULN, number ([3]; warfarin arm): 126
- Adverse Event: Arthralgia ([3]; warfarin arm): 5.5%
- Adverse Event: Arthralgia, number ([3]; warfarin arm): 328
- Adverse Event: Atrial fibrillation ([3]; warfarin arm): 5.4%
- Adverse Event: Atrial fibrillation, number ([3]; warfarin arm): 326
- Adverse Event: Back pain ([3]; warfarin arm): 5.5%
- Adverse Event: Back pain, number ([3]; warfarin arm): 331
- Adverse Event: Chest pain ([3]; warfarin arm): 5.7%
- Adverse Event: Chest pain, number ([3]; warfarin arm): 342
- Adverse Event: Cough ([3]; warfarin arm): 5.8%
- Adverse Event: Cough, number ([3]; warfarin arm): 345
- Adverse Event: Diarrhea ([3]; warfarin arm): 5.5%
- Adverse Event: Diarrhea, number ([3]; warfarin arm): 327
- Adverse Event: Dizziness ([3]; warfarin arm): 9.3%
- Adverse Event: Dizziness, number ([3]; warfarin arm): 555
- Adverse Event: Dyspepsia ([3]; warfarin arm): 1.4%
- Adverse Event: Dyspepsia, number ([3]; warfarin arm): 83
- Adverse Event: Dyspnoea ([3]; warfarin arm): 9.2%
- Adverse Event: Dyspnoea, number ([3]; warfarin arm): 550
- Adverse Event: Fatigue ([3]; warfarin arm): 5.9%
- Adverse Event: Fatigue, number ([3]; warfarin arm): 353
- Adverse Event: Nasopharyngitis ([3]; warfarin arm): 5.5%
- Adverse Event: Nasopharyngitis, number ([3]; warfarin arm): 327
- Adverse Event: Peripheral edema ([3]; warfarin arm): 7.6%
- Adverse Event: Peripheral edema, number ([3]; warfarin arm): 453
- Adverse Event: Upper respiratory tract infection ([3]; warfarin arm): 5.0%
- Adverse Event: Upper respiratory tract infection, number ([3]; warfarin arm): 297
- Adverse Event: Urinary tract infection ([3]; warfarin arm): 5.3%
- Adverse Event: Urinary tract infection, number ([3]; warfarin arm): 315
- All Death, Rate ([3]; warfarin arm): 4.13 /100 Person Years
- Any Major Bleeding, Rate ([3]; warfarin arm): 3.46 /100 Person Years
- Extracranial Bleeding, Rate ([3]; warfarin arm): 2.73 /100 Person Years
- First Hospitalization, Rate ([3]; warfarin arm): 27.5 /100 Person Years
- Intracranial Bleeding, Rate ([3]; warfarin arm): 0.72 /100 Person Years
- Major Bleeding, Life threatening, Rate ([3]; warfarin arm): 1.80 /100 Person Years
- Major Bleeding, Other Major, Rate ([3]; warfarin arm): 1.80 /100 Person Years
- Major gastro-intestinal Bleeding, Rate ([3]; warfarin arm): 1.03 /100 Person Years
- Major or Minor Bleeding, Rate ([3]; warfarin arm): 23.92 /100 Person Years
- Minor Bleeding, Rate ([3]; warfarin arm): 21.03 /100 Person Years
- Mortality rates (death from any cause) ([3]; warfarin arm): 4.13 % per year
- Myocardial Infarction, Rate ([3]; warfarin arm): 0.54 /100 Person Years
- Myocardial infarction rate ([3]; warfarin arm): 0.54 % per year
- Non-disabling Stroke Modified Rankin 0-2, Rate ([3]; warfarin arm): 0.58 /100 Person Years
- Pulmonary embolism, Rate ([3]; warfarin arm): 0.09 /100 Person Years
- Rates of hemorrhagic stroke ([3]; warfarin arm): 0.38 % per year
- Rates of major hemorrhage / major bleeding ([3]; warfarin arm): 3.46 % per year
- Reason for discontinuation: Gastrointestinal bleeding ([3]; warfarin arm): XXX (0.9) %
- Reason for discontinuation: Gastrointestinal disorders (including pain, vomiting and diarrhea) ([3]; warfarin arm): XXX (0.8) %
- Reason for discontinuation: Outcome event ([3]; warfarin arm): XXX (2.2) %
- Reason for discontinuation: Patient decision ([3]; warfarin arm): XXX (6.2) %
- Reason for discontinuation: SAE ([3]; warfarin arm): 1.6%
- Reason for discontinuation: SAE, number ([3]; warfarin arm): 95
- Stroke or systemic embolism, Rate ([3]; warfarin arm): 1.70 /100 Person Years
- Stroke, Hemorrhagic, Rate ([3]; warfarin arm): 0.38 /100 Person Years
- Stroke, Rate ([3]; warfarin arm): 1.58 /100 Person Years
- Study Drug Discontinuation At one year ([3]; warfarin arm): XXXX (10) %
- Study Drug Discontinuation At two years ([3]; warfarin arm): XXXX (19) %
- Vascular Death, Rate ([3]; warfarin arm): 2.69 /100 Person Years
- hepatobiliary disorders (AE) ([3]; warfarin arm): 2.2%
- hepatobiliary disorders (AE), number ([3]; warfarin arm): 132
- hepatobiliary disorders (SAE) ([3]; warfarin arm): 0.4%
- hepatobiliary disorders (SAE), number ([3]; warfarin arm): 25
- net benefit-risk outcome (major vascular events, major bleeding and death) rate ([3]; warfarin arm): 7.99 % per year
- rates of discontinuation at 2.5 years ([3]; warfarin arm): 19%
- stroke or systemic embolism (primary outcome) rate ([3]; warfarin arm): 1.70 % per year
- Study Drug Discontinuation At one year ([3]; warfarin arm, listed as warfarin): 10%
- Myocardial Infarction (AF patients [4]): 0.6% (warfarin)
- Stroke and systemic embolism (per 100 patient years) (AF patients [4]): 1.5% (warfarin)
- Myocardial Infarction (AF patients [5]; Warfarin vs. Ximelagatran): 0.6% (warfarin)
- Stroke and systemic embolism (per 100 patient years) (AF patients [5]; [6]): 2.3% (warfarin)
